# Source: US20090069623A1, “METHODS AND COMPOSITIONS FOR TREATMENT OR PREVENTION OF RADIATION-INDUCED FIBROSIS” (Virginia Commonwealth University Intellectual Property …, priority 2007, published 2009)
# Experiments:
# [1] = system: CTGF, fibronectin (FN), collagen type IV (Col IV) mRNA; experiment: RT-PCR of TGF-β1-induced mRNA expression in HFL-1 cells treated with simvastatin; assay type: cell-based, human; conditions: 10 ng/ml TGF-β1 for 20 hours, FIG. 7A
# Method: Cell Culture and Treatment. Normal human fetal lung fibroblasts (HFL-1) were purchased from the American Type Culture Collection (ATCC Number: CCL-153) and cultured in Ham's F12K medium (American Type Culture Collection) supplemented with 2 mM L-glutamine adjusted to contain 1.5 g/L sodium bicarbonate and 10% fetal bovine serum. Cells were maintained in humidified 5% CO2 at 37° C. Human dermal fibroblasts (HDF), derived from the dermis of normal human adult skin, were purchased from Invitrogen, Inc. and cultured in Medium-106 (Invitrogen, Inc., Catalogue No. M-106-500) containing LSGS Kit (Invitrogen, Inc., Catalogue No. […]) prior to use. After reaching 75-80% confluence, the medium was changed to serum free medium (SFM) for irradiation with different dose 1Gy, 2.5Gy, 5Gy, 7.5Gy and 10 Gy by using ^137Se. Alternatively, cells were treated with 5 ng/ml TGF-β1 (Sigma-Aldrich, Inc., Catalogue No. T7039) to stimulate CTGF production. The cells were then kept for 3 days in humidified 5% CO2 at 37° C. and subjected to Western immunoblot.^1 ^1What are the culture conditions (e.g., media) for M12 cells used in FIG. 3? RT-PCR analysis of CTGF, COL-IV, FN and hβ2M. […] The ability of statins to inhibit TGF-β1-mediated induction of CTGF, fibronectin, and collagen type IV was assessed in HFL-1 cells. […]
# CTGF, fibronectin = experiment: Western blot of irradiated HFL-1 cells treated with HMG-CoA inhibitors; assay type: cell-based, human; conditions: simvastatin pretreatment 6 hours, 5 Gy, three days, FIG. 8B
# Method: For statin treatment experiments, cells were grown overnight in 35 mm plates (6-well plates were also used in some studies) to form a 75-80% confluent monolayer. The cells were then washed with PBS, and the media was changed to SFM (800 μL).
# Harvesting Culture Media and Cell Lystates. For analysis of extracellular CTGF, fibronectin, and α-tubulin, cell culture media was collected, centrifuged to remove cellular debris, aliquoted, and frozen at −70° C. until ready for use. For analysis of intracellular CTGF, fibronectin, and α-tubulin, cell lysates were harvested using 200 μL of HBSST lysis buffer (HBSS containing 1 mM MgSO4, 1 mM CaCl2, 4 mM NaHCO3, 0.5% Triton X-100, protease inhibitor cocktail). Cellular debris was removed by centrifugation.
# Western blot analysis of HFL-1 whole cell proteins. […] Primary antibodies for CTGF and fibronectin were diluted at 1:600 and were incubated at 4° C. overnight with shaking. Primary antibodies for α-tubulin were diluted at 1:4,000 and were incubated at 4° C. overnight with shaking. Corresponding secondary antibodies were diluted at 1:6,000 and were incubated at room temperature for 1 hour with shaking. After washing the blot, the antibodies were detected by the enhanced chemiluminescence method (PerkinElmer Life Sciences Inc.).
# Cells were harvested, and cell lysates were separated by SDS-PAGE. The separated proteins were then transferred to nitrocellulose, and Western immunoblotting was performed with antibodies specific for CTGF, fibronectin, and α-tubulin. […] As a control for protein loading, α-tubulin expression in HFL-1 cells was also determined.
# Cells were harvested, and cell lysates were separated by SDS-PAGE. The separated proteins were then transferred to nitrocellulose, and Western immunoblotting was performed with antibodies specific for CTGF, fibronectin, and α-tubulin. FIG. 8C is a Western blot of HFL-1 cells exposed to radiation and treated with HMG-CoA inhibitors.
structure (smiles),measurement,setting,value
"CCC(C)(C)C(=O)O[C@H]1C[C@@H](C)C=C2C=C[C@H](C)[C@H](CC[C@@H]3C[C@@H](O)CC(=O)O3)[C@H]21 [simvastatin, 2,2-dimethyl-butanoic acid(1S,3R,7S,8S,8aR)-1,2,3,7,8,8a-hexahydro-3,7-dimethyl-8-[2-[(2R,4R)-tetrahydro-4-hydroxy-6-oxo-2H-pyran-2-yl]ethyl]-1-naphthalenylester]","CTGF, FN, and Col IV mRNA expression",[1]; 0.1 μM simvastatin,"reduction in CTGF, FN, and Col IV mRNA expression"
same,"CTGF, FN, and Col IV mRNA expression",[1]; increasing concentration of simvastatin,"reduction in CTGF, FN, and Col IV mRNA expression became more pronounced"
same,fibronectin protein expression,"CTGF, fibronectin",decrease in protein expression or fibronectin
